Reference: patent US11654183B2 (INTARCIA THERAPEUTICS, INC., priority 2017, dated 2023)
Where two headings read alike, the source gives them in different places.

Tests used:
[1] = human, in vivo, po
Experimental: APAP, a marker of gastric emptying, was administered on Day (D)1 followed by the cocktail on D2. […] APAP was administered again on D27 and the cocktail on D28.

[2] = cited from earlier work
[3] = compared to OC alone, cited from earlier work; for decrease of Cmax: repeated daily doses of OC given 30 minutes after BYETTA (10 mcg BID), healthy female subjects; for decrease of mean Cmax: repeated daily doses of OC one hour prior to BYETTA
[4] = Crossover study of ITCA 650 on steady-state PK and PD of the combination oral contraceptive Levora; conditions: ITCA 650 60 mcg/day, healthy premenopausal women
Experimental: Twenty-eight (28) healthy premenopausal women on a stable regimen of an OC participated in a randomized, double-blind, placebo-controlled, 2-period crossover study. […] The study included a 2-week run-in on Levora and 2 treatment periods of 28 days each. […] Subjects were crossed over to the alternative treatment and procedures were repeated in Period 2. The OC was administered daily through D28 of each period.

[5] = 1000 mg acetaminophen elixir given 1 hour after 10 mcg BYETTA injection
[6] = 1000 mg acetaminophen elixir given 2 hours after 10 mcg BYETTA injection
[7] = 1000 mg acetaminophen elixir given 4 hours after 10 mcg BYETTA injection
[8] = 1000 mg acetaminophen elixir given with 10 mcg BYETTA (0 h)
[9] = acetaminophen given 1 hour before BYETTA injection

effect of ITCA 650 on PK of the co-administered drug [1]	effect of ITCA 650 on PK [4]	Structure (SMILES)	Tmax [2, 5] [h]	decrease of Cmax [2, 5] [%]	decrease of acetaminophen AUC [2, 5] [%]	Tmax [2, 6] [h]	decrease of Cmax [2, 6] [%]	decrease of acetaminophen AUC [2, 6] [%]	Tmax [2, 7] [h]	decrease of Cmax [2, 7] [%]	decrease of acetaminophen AUC [2, 7] [%]	Tmax [2, 8] [h]	decrease of Cmax [2, 8] [%]	decrease of acetaminophen AUC [2, 8] [%]	AUC change [2, 9]	Cmax change [2, 9]	Tmax change [2, 9]	Tmax ([2]; control period (without BYETTA)) [h]	decrease of Cmax [3] [%]	decrease of mean Cmax [3]
minimal effect		CC(=O)Nc1ccc(O)cc1 [acetaminophen]	4.2	56	23	3.3	54	24	1.6	41	14	0.9	37	21	not significantly changed	not significantly changed	not significantly changed	0.6		
		C#C[C@]1(O)CC[C@H]2[C@@H]3CCc4cc(O)ccc4[C@H]3CC[C@@]21C [ethinyl estradiol]																	45	15%
	No effect	C#C[C@]1(O)CC[C@H]2[C@@H]3CCC4=CC(=O)CC[C@@H]4[C@H]3CC[C@@]21CC [levonorgestrel]																	27	not significantly changed
